Test system: 5-HT3 receptors
Assay: antagonism of the von Bezold-Jarisch reflex (bradycardia) induced by 5-HT in the anaesthetised rat
Type: in vivo
Settings: i.v., hydrochloride salt, 5 min before 5-HT 30 μg/kg, urethane-anaesthetised rats
Procedure: Temporary bradycardia is induced by administration of 5-HT (serotonin) to anaesthetised rats via jugular vein (von Bezold Jarisch Reflex) (A. S. Paintal, Physiol. Rev., 53, 159-210 (1973)).
The compounds of the present invention were evaluated for antagonism of the von Bezold-Jarisch reflex induced by 5-HT in the anaesthetised rat according to the following method.
Rats were anaesthetised with urethane (1 g/kg, intraperitoneally) and blood pressure and heart rate recorded from left femoral artery. Percent inhibition was calculated from bradycardia induced by 5-HT (30 μg/kg) given 5 minutes following intrajugular administration of a compound of the invention, taking the bradycardia induced by the intrajugular administration of 5-HT. The compounds of the present invention were tested in the form of their hydrochloride salts.

Structure (SMILES) | Percent Inhibition (0.1 μg/kg) | Percent Inhibition (1.0 μg/kg) | Percent Inhibition (10 μg/kg)
CN1[C@@H]2CSC[C@H]1C[C@@H](OC(=O)c1c[nH]c3ccccc13)C2 [Example 1, (Endo-9-methyl-3-thia-9-azabicyclo[3.3.1]non-7-yl) 1H-indole-3-carboxylate] | 51% | 85% | –
CN1[C@@H]2COC[C@H]1C[C@@H](OC(=O)c1c[nH]c3ccccc13)C2 [Example 2, (Endo-9-methyl-3-oxa-9-azabicyclo[3.3.1]non-7-yl) 1H-indole-3-carboxylate] | 54% | 93% | –
CN1[C@@H]2CSC[C@H]1C[C@@H](OC(=O)c1nn(C)c3ccccc13)C2 [Example 3, (Endo-9-methyl-3-thia-9-azabicyclo[3.3.1]non-7-yl) 1-methylindazole-3-carboxylate] | 43% | 67% | –
CN1[C@@H]2COC[C@H]1C[C@@H](OC(=O)c1nn(C)c3ccccc13)C2 [Example 4, (Endo-9-methyl-3-oxa-9-azabicyclo[3.3.1]non-7-yl) 1-methylindazole-3-carboxylate] | 59% | 80% | –
COc1cc(N)c(Cl)cc1C(=O)O[C@H]1C[C@H]2CSC[C@@H](C1)N2C [Example 5, (Endo-9-methyl-3-thia-9-azabicyclo[3.3.1]non-7-yl) 4-amino-5-chloro-2-methoxy benzoate] | – | – | 58%
CN1[C@@H]2COC[C@H]1C[C@@H](NC(=O)c1c[nH]c3ccccc13)C2 [Example 7, Endo-9-methyl-3-oxa-9-azabicyclo[3.3.1]non-7-yl 1H-indole-3-carboxamide] | – | 36% | 72%
CN1C[C@H]2C[C@@H](OC(=O)c3c[nH]c4ccccc34)C[C@@H](C1)N2C [Example 9, (Endo-3,9-dimethyl-3,9-diazabicyclo[3.3.1]non-7-yl) 1H-indole-3-carboxylate] | 28% | 58% | 91%
CN1C[C@H]2C[C@@H](NC(=O)c3c[nH]c4ccccc34)C[C@@H](C1)N2C [Example 11, Endo-3,9-dimethyl-3,9-diazabicyclo[3.3.1]non-7-yl 1H-indole-3-carboxamide] | – | 39% | 79%
CN1C[C@H]2C[C@@H](NC(=O)c3nn(C)c4ccccc34)C[C@@H](C1)N2C [Example 12, Endo-3,9-dimethyl-3,9-diazabicyclo[3.3.1]non-7-yl 1-methylindazole-3-carboxamide] | 25% | 71% | –
CN1C[C@H]2C[C@@H](NC(=O)c3n[nH]c4ccccc34)C[C@@H](C1)N2C [Example 13] | – | 28% | 95%
CCn1nc(C(=O)N[C@@H]2C[C@@H]3CN(C)C[C@H](C2)N3C)c2ccccc21 [Example 15, Endo-3,9-dimethyl-3,9-diazabicyclo[3.3.1]non-7-yl 1-ethylindazole-3-carboxamide] | 42% | 91% | –
CC(C)n1nc(C(=O)N[C@@H]2C[C@@H]3CN(C)C[C@H](C2)N3C)c2ccccc21 [Example 16, Endo-3,9-dimethyl-3,9-diazabicyclo[3.3.1]non-7-yl 1-(2-propyl)indazole-3-carboxamide] | 59% | – | –
CN1C[C@H]2C[C@@H](NC(=O)c3nn(Cc4ccccc4)c4ccccc34)C[C@@H](C1)N2C [Example 17, Endo-3,9-dimethyl-3,9-diazabicyclo[3.3.1]non-7-yl 1-benzylindazole-3-carboxamide] | 43% | 91% | –
CCCCCCCCn1nc(C(=O)N[C@@H]2C[C@@H]3CN(C)C[C@H](C2)N3C)c2ccccc21 [Example 18, Endo-3,9-dimethyl-3,9-diazabicyclo[3.3.1]non-7-yl 1-(n-octyl)indazole-3-carboxamide] | – | 15% | –
CN(C)CCn1nc(C(=O)N[C@@H]2C[C@@H]3CN(C)C[C@H](C2)N3C)c2ccccc21 [Example 19, Endo-3,9-dimethyl-3,9-diazabicyclo[3.3.1]non-7-yl 1-[2-(dimethylamino)ethyl]indazole-3-carboxamide] | – | 10% | –
COc1cc(N)c(Cl)cc1C(=O)N[C@@H]1C[C@@H]2CN(C)C[C@H](C1)N2C [Example 22, Endo-3,9-dimethyl-3,9-diazabicyclo[3.3.1]non-7-yl 4-amino-5-chloro-2-methoxyphenylcarboxyamide] | – | 43% | 89%
